Measured values published in PubChem BioAssay (NCI).
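Protocol summary: plate cells (96-well), add compound at 5 concentrations, incubate 48 h, interpolate endpoints linearly. Here, GI50 denotes the concentration required for 50% inhibition of growth. Definition used: TGI = concentration required for complete inhibition of growth.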

Tested on: RXF 393 renal
Test: inhibition of tumour cell growth, NCI panel, 48 h

SMILES | TGI [µM] | GI50 [µM]
CN(C)CCC(/C=C/c1ccccc1)=N\Nc1ccc(Cl)cc1Cl | 21 | 
COc1ccc(C=O)c(NC(=O)C(C)C)c1 | 64.5 | 
Cc1cc2c(c(C(=O)O)c1C)-c1cccc(F)c1C2=O | > 100 | 
Cc1ccc(S(=O)OC2C3CC4CC(C3)CC2C4)cc1 (stereo not drawn) | > 100 | 
CN(C)c1ccc(/C=C2\C=Cc3ccccc32)cc1 | 84.4 | 
COc1cc2nc(NCCCCCNC(=O)c3ccco3)nc(N)c2cc1OC | 83.5 | 
C/C=C(\C)c1cc(O)c(C)c2c1Oc1cc(O)c(Cl)c(C)c1C(=O)O2 | 34.1 | 
COC(=O)C(C)(C)N=CN(C)C | > 100 | 
C[C@@H]1O[C@@H](OC[C@H]2O[C@@H](OCCc3ccc(O)c(O)c3)[C@H](O)[C@@H](O)[C@@H]2OC(=O)/C=C/c2ccc(O)c(O)c2)[C@H](O)[C@H](O)[C@H]1O | > 100 | > 100
CCOC1=C2N=C(Cc3ccccc3F)N=C2C(=O)c2ccccc21 | > 100 | 
CNS(=O)(=O)NNS(=O)(=O)c1ccc(Cl)cc1 | > 100 | 
CCCCCCCCCCCCCP(=O)(O)NCC(N)=O | > 100 | 
CN1COc2c(n(C)c(=O)[nH]c2=O)C1 | 97.9 | 
CC1(C)OCC(C(O)C2OC(C)(C)OC2/C=N\O)O1 (stereo not drawn) | > 100 | 
CCCCCCN(N)C(=O)CC#N | 94.8 | 
COc1ccc(C(Cl)=C(c2ccc(OCCN(C)C)cc2)c2ccc(OCCN(C)C)cc2)cc1 | 2.65 | 

Tested on: SK-MEL-5 melanoma
Test: inhibition of tumour cell growth, NCI panel, 48 h

SMILES | GI50 [µM] | TGI [µM]
COc1ccc(/C=N/NC(=O)Cn2c(-c3ccc(S(C)(=O)=O)cc3)nc3cc(Cl)ccc32)cc1 | 0.964 | 8.55
CC1CN1c1c(C(=O)/C=C/c2ccccc2)c(-c2ccccc2)nn(C)c1=O (stereo not drawn) |  | 29.4
CCOc1nc(N)nc(C)c1N=Nc1ccc(Cl)cc1 |  | > 100
c1ccc(P(=Nc2ccccc2N=P(c2ccccc2)(c2ccccc2)c2ccccc2)(c2ccccc2)c2ccccc2)cc1 |  | 1.95
COCCOCOc1ccc(OCOCCOC)c2c1C(=O)c1ccccc1C2=O |  | > 100
CCOC(=O)C(=O)Nc1cc(Cl)ccc1Cl |  | > 100
N#Cc1ccc(N=Cc2c([O-])ccc3ccccc23)cc1.[C-]#[O+].[C-]#[O+].[Ir] | 13.4 | 26.2
[N-]=[N+]=C1C(=O)C2CC3CC(C2)CC1C3 |  | > 100
COC(=O)CC1NC(=O)C1C1(C)OCCO1 (stereo not drawn) |  | > 100
COC(CN1C=C(Sc2ccccc2)CC1)OC |  | 34.7
CN(C)CCC(/C=C/c1ccccc1)=N\Nc1ccc(Cl)cc1Cl |  | 26.2
COc1ccc(C=O)c(NC(=O)C(C)C)c1 |  | > 10
Cc1cc2c(c(C(=O)O)c1C)-c1cccc(F)c1C2=O |  | > 100
Cc1ccc(S(=O)OC2C3CC4CC(C3)CC2C4)cc1 (stereo not drawn) |  | > 100
COc1ccc2c(c1)OC1=C(C(=O)OC1)C2c1cc(OC)c2c(c1)OCO2 (stereo not drawn) | 0.0383 | 0.325
CN(C)c1ccc(/C=C2\C=Cc3ccccc32)cc1 |  | > 100
COc1cc2nc(NCCCCCNC(=O)c3ccco3)nc(N)c2cc1OC |  | 34.4
C/C=C(\C)c1cc(O)c(C)c2c1Oc1cc(O)c(Cl)c(C)c1C(=O)O2 |  | 26.9
COC(=O)C(C)(C)N=CN(C)C |  | > 100
C[C@@H]1O[C@@H](OC[C@H]2O[C@@H](OCCc3ccc(O)c(O)c3)[C@H](O)[C@@H](O)[C@@H]2OC(=O)/C=C/c2ccc(O)c(O)c2)[C@H](O)[C@H](O)[C@H]1O | > 100 | > 100
Cc1cc(N(CCC#N)CCC#N)ccc1/C=C1/N=C(c2ccccc2)N(N)C1=O |  | > 100
CNS(=O)(=O)NNS(=O)(=O)c1ccc(Cl)cc1 |  | > 100
C=C1CCC2[C@@H](CCC3[C@]2(C)CCC[C@]3(C)C(=O)OC)[C@@H]1CC=O (stereo partly drawn) |  | 32.5
CCCCCCCCCCCCCP(=O)(O)NCC(N)=O |  | > 100
CN1COc2c(n(C)c(=O)[nH]c2=O)C1 |  | > 100
CC1(C)OCC(C(O)C2OC(C)(C)OC2/C=N\O)O1 (stereo not drawn) |  | > 100
CCCCCCN(N)C(=O)CC#N |  | > 100
O=C(O)/C(Cl)=C(\Cl)C(=O)Nc1ccc(Cl)c(Cl)c1Cl |  | 68.9
COc1ccc(C(Cl)=C(c2ccc(OCCN(C)C)cc2)c2ccc(OCCN(C)C)cc2)cc1 |  | 3.52

Tested on: MOLT-4 leukemia
Test: inhibition of tumour cell growth, NCI panel, 48 h

SMILES | GI50 [µM] | TGI [µM]
COc1ccc(/C=N/NC(=O)Cn2c(-c3ccc(S(C)(=O)=O)cc3)nc3cc(Cl)ccc32)cc1 | 2.11 | > 50
CC1CN1c1c(C(=O)/C=C/c2ccccc2)c(-c2ccccc2)nn(C)c1=O (stereo not drawn) |  | 52.7
CCOc1nc(N)nc(C)c1N=Nc1ccc(Cl)cc1 |  | > 100
COCCOCOc1ccc(OCOCCOC)c2c1C(=O)c1ccccc1C2=O |  | > 100
CCO/C=C1\N=C(c2ccccc2Br)OC1=O |  | > 100
O=P1(Oc2ccccc2)C(c2ccccc2)C(c2ccccc2)=NN1c1ccccc1 (stereo not drawn) |  | 57
CCOC(=O)C(=O)Nc1cc(Cl)ccc1Cl |  | > 100
N#Cc1ccc(N=Cc2c([O-])ccc3ccccc23)cc1.[C-]#[O+].[C-]#[O+].[Ir] | 4.16 | 19.3
[N-]=[N+]=C1C(=O)C2CC3CC(C2)CC1C3 |  | > 100
COC(CN1C=C(Sc2ccccc2)CC1)OC |  | 80.3
CN(C)CCC(/C=C/c1ccccc1)=N\Nc1ccc(Cl)cc1Cl |  | 25.9
COc1ccc(C=O)c(NC(=O)C(C)C)c1 |  | 74.7
Cc1cc2c(c(C(=O)O)c1C)-c1cccc(F)c1C2=O |  | > 100
Cc1ccc(S(=O)OC2C3CC4CC(C3)CC2C4)cc1 (stereo not drawn) |  | > 100
COc1ccc2c(c1)OC1=C(C(=O)OC1)C2c1cc(OC)c2c(c1)OCO2 (stereo not drawn) | 0.0737 | > 100
CN(C)c1ccc(/C=C2\C=Cc3ccccc32)cc1 |  | > 100
COc1cc2nc(NCCCCCNC(=O)c3ccco3)nc(N)c2cc1OC |  | 67.8
COC(=O)C(C)(C)N=CN(C)C |  | > 100
C[C@@H]1O[C@@H](OC[C@H]2O[C@@H](OCCc3ccc(O)c(O)c3)[C@H](O)[C@@H](O)[C@@H]2OC(=O)/C=C/c2ccc(O)c(O)c2)[C@H](O)[C@H](O)[C@H]1O | > 100 | > 100
Cc1cc(N(CCC#N)CCC#N)ccc1/C=C1/N=C(c2ccccc2)N(N)C1=O |  | > 100
CCOC1=C2N=C(Cc3ccccc3F)N=C2C(=O)c2ccccc21 |  | > 100
CNS(=O)(=O)NNS(=O)(=O)c1ccc(Cl)cc1 |  | > 100
C=C1CCC2[C@@H](CCC3[C@]2(C)CCC[C@]3(C)C(=O)OC)[C@@H]1CC=O (stereo partly drawn) | 23.6 | 59.9
